According to article PMC9410764, “EmCyclinD-EmCDK4/6 complex is involved in the host EGF-mediated proliferation of Echinococcus multilocularis germinative cells via the EGFR-ERK pathway” (Frontiers in Microbiology, 2022):

Molecular target: T1, EmCyclinD-EmCDK4/6 complex (Echinococcus multilocularis, UniProt A0A068YJR9)
T1 construct: gene EmuJ_001021000
T1 sequence (A0A068YJR9 1-711): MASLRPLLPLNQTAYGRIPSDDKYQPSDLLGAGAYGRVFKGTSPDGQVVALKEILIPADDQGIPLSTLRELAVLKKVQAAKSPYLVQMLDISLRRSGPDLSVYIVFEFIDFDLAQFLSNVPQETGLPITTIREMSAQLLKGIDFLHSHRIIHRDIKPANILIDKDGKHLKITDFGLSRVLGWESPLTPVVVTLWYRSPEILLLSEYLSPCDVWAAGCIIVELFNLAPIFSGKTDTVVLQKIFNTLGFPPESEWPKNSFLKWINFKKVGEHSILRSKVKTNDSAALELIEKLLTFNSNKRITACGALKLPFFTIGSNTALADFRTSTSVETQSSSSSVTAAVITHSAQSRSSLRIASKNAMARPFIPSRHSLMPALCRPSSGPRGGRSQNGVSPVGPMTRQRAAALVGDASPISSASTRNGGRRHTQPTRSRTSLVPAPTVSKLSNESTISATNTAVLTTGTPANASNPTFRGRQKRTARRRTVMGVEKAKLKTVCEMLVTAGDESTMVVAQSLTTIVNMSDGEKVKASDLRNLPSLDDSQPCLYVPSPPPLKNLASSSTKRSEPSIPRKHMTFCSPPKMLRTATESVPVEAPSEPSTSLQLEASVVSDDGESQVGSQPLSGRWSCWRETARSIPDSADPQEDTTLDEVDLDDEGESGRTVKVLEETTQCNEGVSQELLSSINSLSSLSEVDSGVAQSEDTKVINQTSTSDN
T1 sequence (A0A068Y4X2 1-386 partner): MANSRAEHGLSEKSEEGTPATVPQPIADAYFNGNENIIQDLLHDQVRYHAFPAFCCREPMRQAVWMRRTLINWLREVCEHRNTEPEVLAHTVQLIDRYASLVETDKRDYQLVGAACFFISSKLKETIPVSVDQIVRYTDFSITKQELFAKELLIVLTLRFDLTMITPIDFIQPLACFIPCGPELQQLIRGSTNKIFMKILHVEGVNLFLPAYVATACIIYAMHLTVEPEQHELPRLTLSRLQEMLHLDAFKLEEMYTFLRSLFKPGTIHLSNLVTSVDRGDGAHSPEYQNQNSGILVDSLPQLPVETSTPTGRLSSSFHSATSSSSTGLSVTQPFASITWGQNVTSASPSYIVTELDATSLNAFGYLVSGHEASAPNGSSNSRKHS
Conditions: human Rb1 substrate (3 ug); 25 uM ATP, 20 mM MgCl2, 1 mM DTT, pH 7.5, RT, 20 min

Compound: Nc1ncnc2c1ncn2[C@@H]1O[C@H](COP(=O)(O)OP(=O)(O)OP(=O)(O)O)[C@@H](O)[C@H]1O [ATP]
- kinase activity: the EmCDK4/6-EmCyclinD complex displayed kinase activity against human Rb1
